Measurements reported in patent US10336788B2, “Inhibition of cardiac fibrosis in myocardial infarction” (Moerae Matrix, Inc., priority 2014, dated 2019).
No end group written: not given here.

Tests used:
C57BL/6 mice = test: Conscious echocardiography of cardiac function after acute myocardial infarction (permanent LAD ligation)
From the text: Eight to ten week old C57BL/6 mice (25-30 g) were obtained from Charles River (Wilmington, Mass.) and maintained for at least 7 days with free access to standard rodent food and water. Myocardial infarction was induced by permanent ligation of the left anterior descending (LAD) coronary artery as described previously [Maejima Y, Kyoi S, Zhai P, Liu T, Li H, Ivessa A, et al. Mst1 inhibits autophagy by promoting the interaction between Beclin1 and Bcl-2. Nature Medicine. 2013; 19:1478-88; Qian L, Huang Y, Spencer C I, Foley A, Vedantham V, Liu L, et al. In vivo reprogramming of murine cardiac fibroblasts into induced cardiomyocytes. Nature. 2012; 485:593-8]. Post-surgery, mice were immediately treated with lidocaine (6 mg/kg IM) and atropine (0.04-0.10 mg/kg IM) upon surgical closure, followed by lidocaine and atropine every 2-4 hours for the first 24 hours to prevent arrhythmias. Post-anesthesia, mice were given 0.1 mg/kg buprenorphine every 12 hours for the first 48 hours. […] Cardiac function was measured by conscious echocardiography using a Vevo 2100 ultrasound biomicrscopy system (VisualSonics, Inc., Toronto, Canada) at baseline, 1, 7, and 14 days, as previously described [Oakley R H, Ren R, Cruz-Topete D, Bird G S, Myers P H, Boyle M C, et al. Essential role of stress hormone signaling in cardiomyocytes for the prevention of heart disease. Proc Natl Acad Scie USA. 2013; 110:17035-40; Willis M S, Homeister J W, Rosson G B, Annayev Y, Holley D, Holly S P, et al. Functional redundancy of SWI/SNF catalytic subunits in maintaining vascular endothelial cells in the adult heart. Circulation Res. 2012; 111:e111-22; Willis M S, Schisler J C, Li L, Rodriguez J E, Hilliard E G, Charles P C, et al. Cardiac muscle ring finger-1 increases susceptibility to heart failure in vivo. Circulation Res. 2009; 105:80-8].
Echocardiography was used to follow cardiac function and morphometry prior to the surgical induction of an acute myocardial infarction (AMI) induced by thoracotomy and ligation of the left anterior descending coronary artery in C57BL/6 mice. Cardiac function was then followed at 7 and 14 days post-AMI (FIG. 1A).

H9C2 cells = test: Caspase 3/7 activity in H9C2 cells challenged with 1% hypoxia; format: cell-based, rat; conditions: 100 μM, 16 and 24 hours
Experimental: H9C2 is a myoblast cell line derived from rat myocardium obtained from ATCC® (CRL-1446, ATCC, Manassas, Va.) and cultured according to the recommended protocols. Briefly, cells were maintained at 37° C. with 5% CO2 in DMEM supplemented with 10% fetal bovine serum and antibiotics (100 U/ml penicillin, […] streptomycin) and split at a ratio of 1:4 using 0.05% trypsin every 36 hours. […]
Cells were rinsed in PMS and grown in DMEM (cat. #11966-025, Gibco) for 2 hours prior to initiating hypoxia (simulated ischemia). […] Three different time points were adopted for each of the three cell lines according to the severity of cell death under hypoxia determined by LDH release: for H9C2 cell line: 8 hr; 16 hr; 24 hr; for HL-1 cell line: 4 hr; 8 hr; 12 hr; for cardiac fibroblast cell line: 16 hr; 32 hr; 48 hr.
Cell death was first determined using an LDH release assay (cat. #630117, Clontech), according to the manufacturer's instructions. […] Caspase 3/7 activity was next determined using a commercial Caspase 3/7 activity kit (Cat. #G8091, Promega, Madison, Wis. 53711) in a 384 well plate (Cat. #781903, Greiner bio-one) according to the manufacturer's instructions. […] The resulting cell lysates (25 μl, with 0.6 ug total protein) and Caspase-Glo 3/7 Reagent were added to each well in a 1:1 ratio and the luminescence was read (CLARIOstar, BMG LABTECH GmbH). […]

Sequence: YARAAARQARAKALARQLGVAA [MMI-0100]
- LV dilation: LVID; d decreased (C57BL/6 mice; AMI mice treated with MMI-0100, compared to sham, vs. 40% without MMI-0100): 29%
- LV dilation: LV Volume; d decreased (C57BL/6 mice; AMI mice treated with MMI-0100, compared to sham, vs. 130% without MMI-0100): 88%
- cardiac function compared to untreated AMI mice (C57BL/6 mice; AMI mice, 50 μg/kg/day intraperitoneally, first dose 30 minutes after LAD ligation, 1 and 2 weeks after AMI): significantly greater function
- effect on cardiac function, MMI-0100 alone (C57BL/6 mice; mice without AMI, daily MMI-0100 intraperitoneally for 14 days): did not have any effect
- caspase 3/7 activity (H9C2 cells): inhibited
